Assay results taken from ChEMBL document CHEMBL4196001, “Design, semisynthesis, α-glucosidase inhibitory, cytotoxic, and antibacterial activities of p-terphenyl derivatives” (Eur J Med Chem, 2018).
Values after ≈ are worked out from the molar mass of the structure shown. Active and inactive are the calls of the source. The rule behind the calls is not given here.

Legend:
A549 [1] = test: Cytotoxicity against human A549 cells at 10 uM by SRB assay; assay type: functional, cell-based
Alpha glucosidase [2] = target: T1, Alpha glucosidase (Homo sapiens, UniProt O43451+P10253+P14410+Q2M2H8); test: Inhibition of human alpha-glucosidase expressed in Saccharomyces cerevisiae using p-nitrophenyl-alpha-D-glucopyranoside as substrate after 15 mins
alpha-glucosidase = test: Therapeutic index, ratio of CC50 for human Chang cells to IC50 for human alpha-glucosidase expressed in Saccharomyces cerevisiae; assay type: toxicity; conditions: read-out: Ratio CC50/IC50
HepG2 [3] = test: Cytotoxicity against human HepG2 cells at 10 uM by SRB assay; assay type: functional, cell-based
[4] = Cytotoxicity against human Chang cells by SRB assay; assay type: cell-based
HeLa [5] = test: Cytotoxicity against human HeLa cells at 10 uM by SRB assay; assay type: functional, cell-based
Alpha glucosidase [6] = target: T1, Alpha glucosidase; test: Non-competitive inhibition of human alpha-glucosidase expressed in Saccharomyces cerevisiae using p-nitrophenyl-alpha-D-glucopyranoside as substrate after 15 mins by Lineweaver-Burk plot analysis
HeLa [7] = test: Cytotoxicity against human HeLa cells after 3 days by hematoxylin-eosin staining-based assay; assay type: functional; conditions: 72 h, read-out: ID50 (the source's name)
HeLa [8] = test: Cytotoxicity against human HeLa cells by SRB assay; assay type: functional, cell-based
[9] = Cytotoxicity against human Chang cells at 10 uM by SRB assay; assay type: cell-based
HeLa [10] = test: Cell cycle arrest in human HeLa cells assessed as accumulation of cells at S phase at 5 uM after 36 hrs by flow cytometric analysis (reference value: 23.44%); assay type: functional
HeLa [11] = test: Cell cycle arrest in human HeLa cells assessed as accumulation of cells at G0/G1 phase at 10 uM after 36 hrs by flow cytometric analysis (reference value: 66.64%); assay type: functional
HeLa [12] = test: Cell cycle arrest in human HeLa cells assessed as accumulation of cells at G0/G1 phase at 5 uM after 36 hrs by flow cytometric analysis (reference value: 66.64%); assay type: functional
HeLa [13] = test: Cell cycle arrest in human HeLa cells assessed as accumulation of cells at G0/G1 phase at 1.25 uM after 36 hrs by flow cytometric analysis (reference value: 66.64%); assay type: functional
HeLa [14] = test: Cell cycle arrest in human HeLa cells assessed as accumulation of cells at S phase at 10 uM after 36 hrs by flow cytometric analysis (reference value: 23.44%); assay type: functional
A549 [15] = test: Cytotoxicity against human A549 cells by SRB assay; assay type: functional, cell-based
HeLa [16] = test: Cell cycle arrest in human HeLa cells assessed as accumulation of cells at S phase at 2.5 uM after 36 hrs by flow cytometric analysis (reference value: 23.44%); assay type: functional
HeLa [17] = test: Cell cycle arrest in human HeLa cells assessed as accumulation of cells at G2/M phase at 2.5 uM after 36 hrs by flow cytometric analysis (reference value: 9.92%); assay type: functional
HeLa [18] = test: Cell cycle arrest in human HeLa cells assessed as accumulation of cells at G2/M phase at 5 uM after 36 hrs by flow cytometric analysis (reference value: 9.92%); assay type: functional
HeLa [19] = test: Cell cycle arrest in human HeLa cells assessed as accumulation of cells at G0/G1 phase at 2.5 uM after 36 hrs by flow cytometric analysis (reference value: 66.64%); assay type: functional
HepG2 [20] = test: Cytotoxicity against human HepG2 cells by SRB assay; assay type: functional, cell-based
HeLa [21] = test: Cell cycle arrest in human HeLa cells assessed as accumulation of cells at G2/M phase at 1.25 uM after 36 hrs by flow cytometric analysis (reference value: 9.92%); assay type: functional
HeLa [22] = test: Cell cycle arrest in human HeLa cells assessed as accumulation of cells at G2/M phase at 10 uM after 36 hrs by flow cytometric analysis (reference value: 9.92%); assay type: functional
HeLa [23] = test: Cell cycle arrest in human HeLa cells assessed as accumulation of cells at S phase at 1.25 uM after 36 hrs by flow cytometric analysis (reference value: 23.44%); assay type: functional
Staphylococcus aureus = test: Antibacterial activity against Staphylococcus aureus after 24 hrs by broth macrodilution method; assay type: functional
MDA-MB-435 = test: Cytotoxicity against human MDA-MB-435 cells; assay type: functional, cell-based

SMILES	IC50 (Alpha glucosidase [2]) [µM]	Activity (A549 [1])	Activity (HepG2 [3])	CC50 [4] [µM]	Activity (HeLa [5])	IC50 (HeLa [8]) [µM]	Activity [9]	further results
COc1cc(-c2ccc(O)cc2)c(O)c(O)c1-c1ccc(O)cc1	13.2	inactive	inactive	224	inactive	–	–	selectivity ratio (alpha-glucosidase): 17
COc1cc(-c2ccc(O)cc2)c(OC)c(O)c1-c1ccc(O)cc1 [TERPHENYLLIN]	4.79	inactive	inactive	6.95	–	15.1	–	Ki (Alpha glucosidase [6]): 1.5 µM; IC50 (HeLa [7]): 10 µg/mL (≈ 29.6 µM)
CCCOc1ccc(-c2cc(OC)c(-c3ccc(O)cc3)c(O)c2OC)cc1	10	inactive	inactive	98.5	inactive	–	–	selectivity ratio (alpha-glucosidase): 10
COc1cc(-c2ccc(O)cc2)c(OC)c(O)c1-c1ccc(OCC=C(C)C)cc1	17.5	–	–	0.31	–	3.18	–	Activity (HeLa [10]): 52.69%; Activity (HeLa [11]): 42.24%; Activity (HeLa [12]): 42.98%; Activity (HeLa [13]): 49.83%; Activity (HeLa [14]): 57.2%; IC50 (A549 [15]): 0.31 µM; Activity (HeLa [16]): 45.75%; Activity (HeLa [17]): 10.54%; Activity (HeLa [18]): 4.33%; Activity (HeLa [19]): 43.71%; IC50 (HepG2 [20]): 0.46 µM; Activity (HeLa [21]): 10.74%; Activity (HeLa [22]): 0.55%; Activity (HeLa [23]): 39.42%
C=CCOc1ccc(-c2c(OC)cc(-c3ccc(O)cc3)c(OC)c2O)cc1	32.2	–	–	0.57	–	1.02	–	IC50 (A549 [15]): 0.17 µM; MIC (Staphylococcus aureus): 6.25 µM (≈ 2.37 µg/mL); IC50 (HepG2 [20]): 0.95 µM
COc1cc(-c2ccc(O)cc2)c(OC)c(OCCC(C)C)c1-c1ccc(O)cc1	8.58	inactive	inactive	–	inactive	–	Non-Toxic	Ki (Alpha glucosidase [6]): 3.45 µM

Continued, in another order:

IC50 (Alpha glucosidase [2]) [µM]	SMILES	Activity (A549 [1])	Activity (HepG2 [3])	CC50 [4] [µM]	Activity (HeLa [5])	IC50 (HeLa [8]) [µM]	Activity [9]	further results
108.2	COc1cc(-c2ccccc2)c(OC)c(O)c1-c1ccc(O)cc1	inactive	inactive	–	inactive	–	Non-Toxic	IC50 (HeLa [7]): 32 µg/mL (≈ 99.3 µM)
11.3	COc1cc(-c2ccc(O)cc2)c(OC)c(O)c1-c1ccc(O)c(O)c1	inactive	inactive	–	inactive	–	Non-Toxic	IC50 (MDA-MB-435): < 20 µM
14	COc1cc(-c2ccc(O)c(O)c2)c(OC)c(O)c1-c1ccc(O)c(O)c1	inactive	inactive	–	inactive	–	Non-Toxic	IC50 (MDA-MB-435): < 20 µM
